{"source": "patent US11638719B2", "about": "“Product for obesity treatment” (YEDITEPE UNIVERSITESI, priority 2017, dated 2023)", "assay_type_in_all_cases": "cell-based", "key": {"[1]": {"test_system": "human adipose stem cells (hASCs)", "assay": "'Oil Red O' staining of fat accumulation after adipocyte differentiation", "settings": "F68 0.05%, NaB 20 μg/ml, alone or combined; 10 days adipogenic differentiation; compared to positive control", "procedure": "(§1) The cells were seeded into 6-well culture plates at 100,000 cells/well in an adipogenic differentiation medium. Content of the medium was as follows. 10% (v/v) FBS, 1 uM dexamethasone, 100 uM indomethacin (Sigma, USA), 500 uM IBMX (Calbiochem Merck Millipore, Germany) and 0.01 mg/mL insulin (Gibco, UK). 5 different groups were prepared; only F68, only NaB, F68 and NaB combination, PC and NC. Adipogenic differentiation was applied for 10 days by changing the medium every other day. While only DMEM, 10% (v/v) FBS and 1% (v/v) PSA were applied to the negative control group, the positive control group was cultured with adipogenic differentiation medium.\nThe ‘Oil Red O’ solution was prepared by dissolving 0.5 grams of ‘Oil Red O’ (Sigma, USA) in 100 ml of isopropanol. After being fixed with 2% paraformaldehyde (weight/volume) for 30 minutes, the cells were incubated in ‘Oil Red O’ solution (diluted in PBS at 6:4) for 1 hour. The cells were observed under light microscope.\nStatistical analysis of the results was performed with the unpaired t-test and the graphs were drawn using GraphPad Prism 5 software Statistical significance was accepted as p<0.05. In addition, a graphical representation of the results obtained from immunocytochemistry and ‘Oil red O’ staining was obtained using the Adobe Creative Suite 6 program"}, "[2]": {"test_system": "human adipose stem cells (hASCs)", "assay": "Cytotoxicity analysis, cell viability by MTS assay", "settings": "NaB 20 μg/ml; for cell viability: MTS", "procedure": "Cytotoxicity of Pluronic® F68 and NaB were dissolved and tested at 7 different concentrations in DMEM ([…], 0.7%, 0.5%, 0.3%, 0.1%, 0.05%, 0.01% (w/v) for F68 and 5, 10, 20, 50, 100, 200 and 300 ug/ml for NaB).\nHASCs were seeded into 96-well culture plates (Corning Plasticware, Corning, N.Y., cat. no. CLS3360) at 5,000 cells/well. The next day, the cells were treated with F68 and NaB solutions that were prepared at different concentrations. In accordance with the manufacturer's instructions, cell viability was measured by the MTS assay (Promega, Southampton, UK CellTiter 96 AqueousOne solution). After 24, 48 and 72 hours of incubation, 10 ul of MTS reagent and 100 ul of DMEM medium were applied to the cells and then, after incubation at 37° C. for 2 hours, their absorbances at […] were measured with the ELISA plate reader (BioTek Instruments, Inc., Vt., USA)."}, "[3]": {"test_system": "PPARγ, FABP4 and adiponectin gene expression in human adipose stem cells", "assay": "RT-PCR analysis of adipogenesis-promoting gene expression after adipocyte differentiation", "settings": "F68 0.05%, NaB 20 μg/ml, alone or combined; 10 days adipogenic differentiation; compared to positive control; normalized to GAPDH", "procedure": "as §1\nFollowing differentiation, RNA isolation was carried out using High Pure RNA Isolation Kit (Roche, Germany) in accordance with the manufacturer's instructions. After performance of cDNA synthesis (High Fidelity cDNA synthesis kit, Roche, Germany) from isolated RNA samples, RT-PCR was performed in three replicates using iCycler RT-PCR detection system (Bio-Rad, Hercules, Calif.). Synthesis levels were normalized to GAPDH.\nFor each sample the fold changes in the expression levels were determined using the method 2 (-Delta Delta C (t))."}, "[4]": {"test_system": "PPARγ, FABP4 and adiponectin protein expression in human adipose stem cells", "assay": "Immunocytochemical analysis of PPARγ, FABP4 and adiponectin proteins after adipocyte differentiation", "settings": "F68 0.05%, NaB 20 μg/ml, alone or combined at the same ratios; compared to positive control", "procedure": "as §1\nHuman adipose stem cells were seeded into 48-well plates at 8,000 cells/well. Following the differentiation experiment, the cells were fixed in 2% (w/v) paraformaldehyde at 4° C. for 30 minutes and then blocked with 2% (v/v) goat serum (Sigma, USA) for 20 minutes. The cells incubated at 4° C. overnight with PPAR-γ (ab8934, Abcam, UK, 1: 100), FABP4 (SC-30088, Santa Cruz Biotechnology, Tex., USA, 1:100) and adiponectin (ab22554, Abcam, UK, 1:50) primary antibodies were then incubated with secondary antibodies (goat anti-rabbit IgG Alexa Fluor 488, goat anti-mouse IgGAlexaFluor 488, 1:1000) at 4° C. for 2 hours. […] Immunocytochemical analysis results were observed under fluorescence microscope (NiconEclipse TE200). […]"}}, "data": [{"substance": "sodium pentaborate pentahydrate [NaB]", "values": [{"measurement": "amount of fat accumulation in the cells", "setting": "[1]", "result": "increased the amount of fat accumulation"}, {"measurement": "cell viability", "setting": "[2]; end of day 1, hASCs", "result": 101, "unit": "%"}, {"measurement": "cell viability", "setting": "[2]; end of day 2, hASCs", "result": 106, "unit": "%"}, {"measurement": "cell viability", "setting": "[2]; end of day 3, hASCs", "result": 109, "unit": "%"}, {"measurement": "cytotoxicity of the dosage used", "setting": "[2]; hASCs", "result": "non-cytotoxic"}, {"measurement": "expression levels of PPARγ, FABP4 and adiponectin genes", "setting": "[3]", "result": "increased significantly"}, {"measurement": "PPARγ, FABP4 and adiponectin protein expression levels", "setting": "[4]", "result": "higher than that of positive control"}]}]}
